# “Also recorded” adds a separate entry of the source. Read-outs that look alike come from different tables or passages of the source.
# Experiments:
# ERK2 = conditions: cited from earlier work
# ERK1 = conditions: cited from earlier work
# [1] = system: BRAF mutant and RAS mutant cell lines; set-up: method as in PMID 29247021, PMID 28939558; conditions: preclinical studies; cited from earlier work
# HCT116 cells = assay: Cell proliferation (CCK8) assay, HCT116; format: cell-based, human; conditions: HCT116, 72 h, read-out: IC50 (growth inhibition, cytotoxicity)
# Procedure: (§1) A375, HCT116, Calu-6, and B16-F10 cells were purchased from American Type Culture Collection (ATCC) and cultured in DMEM high glucose media (SH30022.01, Cytiva, Shanghai, China) supplemented with 10% fetal bovine serum (10099-144, Gibco, Carlsbad, CA, USA) and 1% penicillin/streptomycin (Solarbio, Beijing, China) in an incubator at 37 °C with 5% CO2.
# (§2) A 96-well plate (3599, Corning, New York, NY, USA) was inoculated with 100 μL of complete medium containing 10,000 cells, and the experimental, control, and blank groups were established. Three parallel wells were used per concentration. After 10 h, the media from the experimental and control groups were replaced with a compound containing the indicated concentration of the complete medium. Cells were incubated for 72 h before 10 μL of CCK8 reagent (CA1210, Solarbio, Beijing, China) was added to each well and incubated for 1 h. Using a microplate reader (Tecan, Mannendorf, Switzerland), the absorbance at 450 nm was measured. The IC50 values were determined using GraphPad Prism 8 and nonlinear regression curve fitting.
# Calu-6 cells = assay: Cell proliferation (CCK8) assay, Calu-6; format: cell-based; conditions: Homo sapiens, Calu-6, 72 h, read-out: IC50 (growth inhibition, cytotoxicity)
# Procedure: as §1, §2
# A375 cells [2] = assay: Cell proliferation (CCK8) assay, A375; format: cell-based; conditions: Homo sapiens, A-375, A375, 72 h, read-out: IC50 (growth inhibition, cytotoxicity)
# Procedure: as §1, §2
# ERK1/2 [3] = assay: Western blot ERK1/2 protein degradation assay in HCT116 cells; format: cell-based, human
# Procedure: A375, HCT116, Calu-6, and B16-F10 cells were purchased from American Type Culture Collection (ATCC) and cultured in DMEM high glucose media (SH30022.01, Cytiva, Shanghai, China) supplemented with 10% fetal bovine serum (10099-144, Gibco, Carlsbad, CA, USA) and 1% penicillin/streptomycin (Solarbio, Beijing, China) in an incubator at 37 °C with 5% CO2. Cells were cultured under the indicated conditions as described in “Cell culture”. Cells were seeded in 6-well plates (3516, Corning, New York, NY, USA). Compounds were dissolved in DMSO for storage (10 mM). Following compound treatment, cells were washed with PBS, scraped from the plate, and lysed using cell lysis buffer (Applygen, Beijing, China). After the protein in the cell lysate was quantified via the BCA quantification method, the samples were placed in a metal bath at 100 °C and heated for 5 min. Cell lysates were separated using a 10% SDS–PAGE gel and transferred to PVDF membranes (Merck Millipore, Burlington, MA, USA). The PVDF membrane was blocked with 5% nonfat dry milk in TBST for one hour. The PVDF membrane was transferred to the antibody diluent and incubated overnight at 4 °C. PVDF membranes were washed three times with TBST for 5 min each and then incubated with the appropriate HRP-conjugated secondary antibody for 1 h at room temperature. After washing three more times with TBST, the PVDF membrane was stained with a hypersensitive ECL chemiluminescence reagent (Biodragon, Beijing, China) and then imaged with Tanon 5200. Grayscale quantitative analysis was performed using ImageJ software. Statistical analysis was performed using GraphPad Prism 8. DC50 and Dmax values were fitted using a four-parameter [inhibitor] versus response and reported directly from the Prism output. Mean ± SD and unpaired t tests were performed in GraphPad Prism.
# ERK1/2 [4] = assay: Western blot ERK1/2 protein degradation assay in A375 cells; format: cell-based, human
# Procedure: as §1
# Cells were cultured under the indicated conditions as described in “Cell culture”. Cells were seeded in 6-well plates (3516, Corning, New York, NY, USA). Compounds were dissolved in DMSO for storage (10 mM). Following compound treatment, cells were washed with PBS, scraped from the plate, and lysed using cell lysis buffer (Applygen, Beijing, China). After the protein in the cell lysate was quantified via the BCA quantification method, the samples were placed in a metal bath at 100 °C and heated for 5 min. Cell lysates were separated using a 10% SDS–PAGE gel and transferred to PVDF membranes (Merck Millipore, Burlington, MA, USA). The PVDF membrane was blocked with 5% nonfat dry milk in TBST for one hour. The PVDF membrane was transferred to the antibody diluent and incubated overnight at 4 °C. PVDF membranes were washed three times with TBST for 5 min each and then incubated with the appropriate HRP-conjugated secondary antibody for 1 h at room temperature. After washing three more times with TBST, the PVDF membrane was stained with a hypersensitive ECL chemiluminescence reagent (Biodragon, Beijing, China) and then imaged with Tanon 5200. Grayscale quantitative analysis was performed using ImageJ software. Statistical analysis was performed using GraphPad Prism 8. DC50 and Dmax values were fitted using a four-parameter [inhibitor] versus response and reported directly from the Prism output. Mean ± SD and unpaired t tests were performed in GraphPad Prism.
# ERK1/2 [5] = assay: Western blot ERK1/2 protein degradation assay in B16-F10 cells; format: cell-based; conditions: B16-F10 murine melanoma cells, 48 h
# Procedure: (§3) A375, HCT116, Calu-6, and B16-F10 cells were purchased from American Type Culture Collection (ATCC) and cultured in DMEM high glucose media (SH30022.01, Cytiva, Shanghai, China) supplemented with 10% fetal bovine serum (10099-144, Gibco, Carlsbad, CA, USA) and 1% penicillin/streptomycin (Solarbio, Beijing, China) in an incubator at 37 °C with 5% CO2. Cells were cultured under the indicated conditions as described in “Cell culture”. Cells were seeded in 6-well plates (3516, Corning, New York, NY, USA). Compounds were dissolved in DMSO for storage (10 mM). Following compound treatment, cells were washed with PBS, scraped from the plate, and lysed using cell lysis buffer (Applygen, Beijing, China). After the protein in the cell lysate was quantified via the BCA quantification method, the samples were placed in a metal bath at 100 °C and heated for 5 min. Cell lysates were separated using a 10% SDS–PAGE gel and transferred to PVDF membranes (Merck Millipore, Burlington, MA, USA). The PVDF membrane was blocked with 5% nonfat dry milk in TBST for one hour. The PVDF membrane was transferred to the antibody diluent and incubated overnight at 4 °C. PVDF membranes were washed three times with TBST for 5 min each and then incubated with the appropriate HRP-conjugated secondary antibody for 1 h at room temperature. […] Grayscale quantitative analysis was performed using ImageJ software. […]
# ERK1/2 [6] = assay: Western blot ERK1/2 protein degradation assay in Calu-6 cells; format: cell-based, human; conditions: 48 h, Western blot and grayscale quantification
# Procedure: as §3
# HCT116 tumor = assay: HCT116 subcutaneous xenograft model in nude mice; format: in vivo
# Procedure: Male BALB/c nude mice of around 8 weeks old were purchased from Charles River (Beijing, China). Nude mice were raised in SPF-grade animal rooms and had access to water and food ad libitum. HCT116 colorectal cancer cells were grown in DMEM supplemented with 10% fetal calf serum and 1% penicillin/streptomycin under standard cell culture conditions. HCT116 xenografts were prepared by subcutaneously injecting 5× 10^6 cells suspended in PBS into the right flank of each male BALB/c nude mouse. Tumor growth was monitored via caliper measurement, and volume was calculated using the following equation: 0.5 × max (length/width) × min (length/width) × min (length/width). When the tumors reached an average of approximately 100 mm^3, the mice were randomized into groups of five. The mice were injected intraperitoneally once a day at doses of 6, 12, 25 mg/kg compound B1-10J and 25 mg/kg 5-FU. Body weights and tumor volumes were measured every 2–3 days. All studies were appropriately statistically powered.
# A375 cells [7] = assay: Transwell migration assay; format: cell-based, human; conditions: 24 h
# Procedure: A total of 100 µL of FBS-free DMEM high-glucose medium containing 20,000 cells was added to the upper layer of the Transwell chamber of a 24-well plate (3422, Corning, New York, NY, USA), and a complete medium containing 10% FBS was added to the lower layer. The experimental group and the control group were established. The control group used DMSO (DMSO concentration in the culture medium was no more than 0.5% in each well), and the specified concentration of compounds was added to the medium of the experimental group. The cells were then placed in an incubator for 24 h. The cells were washed with PBS, the cells in the upper layer of the Transwell chamber were wiped off with a cotton swab, and the cells were fixed with cold methanol for 15 min. The cells were stained with crystal violet reagent and observed and photographed under a microscope. Then, crystal violet was washed with 33% acetic acid and the absorbance was measured at a wavelength of 590 nm. Graphing with GraphPad Prism 8 after counting cells was performed.
# HCT116 mouse xenografts = system: HCT116 mouse xenografts; set-up: method as in PMID 27227380; conditions: cited from earlier work
# tumor = system: tumor; set-up: method as in PMID 28376306; conditions: daily dose of 50 mg/kg; cited from earlier work
compound,measurement,setting,value
CC(C)Nc1cc(-c2c[nH]c(C(=O)N[C@H](CO)c3cccc(Cl)c3)c2)c(Cl)cn1 [BVD-523],Ki,ERK2,0.04 nM
same,Ki,ERK1,< 0.3 nM
same,anticancer activity,[1],demonstrated anticancer activity
Cc1cccc(CN2C(=O)c3cc(-c4nc(Nc5ccnc(C#CCCN(C)CCCCCCCCCCNc6cccc7c6C(=O)N(C6CCC(=O)NC6=O)C7=O)c5)ncc4C)cn3C[C@H]2C)n1 (stereo partly shown) [Compound B1-10J],IC50,HCT116 cells,2100 nM
same,IC50,"HCT116 cells; Homo sapiens, HCT-116, 72 h",2200 nM
same,IC50,Calu-6 cells,15900 nM
same,IC50,A375 cells [2],> 30000 nM
same,duration of ERK1/2 degradation,ERK1/2 [3]; 1 μM,up to 72 h
same,time at which ERK1/2 degradation nearly reached its highest level,ERK1/2 [3]; 1 μM,24 h
same,time at which ERK1/2 protein began to degrade,ERK1/2 [3]; 1 μM,6 h
same,DC50,"ERK1/2 [3]; 48 h, Western blot and grayscale quantification",102 nM
same,time after which ERK1/2 protein level returned to normal,ERK1/2 [4]; 1 μM,> 48 h
same,time at which ERK1/2 degradation nearly reached its highest level,ERK1/2 [4]; 1 μM,24 h
same,time at which ERK1/2 protein began to degrade,ERK1/2 [4]; 1 μM,6 h
same,ERK1/2 degradation with/without MG132 and MLN4924,"ERK1/2 [4]; 24 h, B1-10J 1 μM, MG132 1 μM, MLN4924 1 μM",only degraded by B1-10J alone
same,concentration dependence of ERK1/2 degradation (hook effect),"ERK1/2 [4]; 24 h, large range of concentrations",typical “hook” effect
same,ERK1/2 degradative activity (in words),"ERK1/2 [4]; 48 h, Western blot",slightly increased DC50; also recorded: effective ERK1/2 degraders
same,DC50,"ERK1/2 [4]; 48 h, Western blotting and grayscale quantification",498 ± 369 nM
same,ERK1/2 degradative activity (in words),ERK1/2 [5],weak degradative activity
same,DC50,ERK1/2 [6],85 nM
same,tumor growth inhibition,"HCT116 tumor; 25 mg/kg daily, intraperitoneal, up until day 19",approximately 50%
same,"tumor growth inhibition, dose dependence","HCT116 tumor; 6, 12, 25 mg/kg Q.D., intraperitoneal",dose-dependent manner
same,antitumor effect (in words),"HCT116 tumor; daily dose of 25 mg/kg, intraperitoneal, 25 mg/kg",more effective at a 25 mg/kg dose than 5-FU
same,body weight / tolerability,"HCT116 tumor; nude mice with HCT116 xenograft, during treatment",well-tolerated
same,decrease of migration rate,"A375 cells [7]; 1 μM, crystal violet absorbance 590 nm",more than 50%
same,cell migration (in words),A375 cells [7]; Transwell chamber,dose-dependently inhibited; also recorded: decreased markedly; also recorded: significantly prevented the migration
"Cn1nccc1Nc1nccc(-c2ccn([C@H](CO)c3ccc(Cl)c(F)c3)c(=O)c2)n1 [GDC-0994, (S)-1-(1-(4-Chloro-3-fluorophenyl)-2-hydroxyethyl)-4-(2-((1-methyl-1H-pyrazol-5-yl)amino)pyrimidin-4-yl)pyridin-2(1H)-one]",IC50,ERK2,[…]
same,antitumor activity,HCT116 mouse xenografts,potent antitumor activity
Cc1cccc(CN2C(=O)c3cc(-c4nc(Nc5ccnn5C)ncc4C)cn3C[C@H]2C)n1 [compound 35],IC50,ERK2,< 0.3 nM
same,antitumor effect,tumor,significant tumor regression

# From article PMC10671693, “Design, Synthesis, and Antitumor Activity Evaluation of Proteolysis-Targeting Chimeras as Degraders of Extracellular Signal-Regulated Kinases 1/2” (International Journal of Molecular Sciences, 2023)
